pIC50: −log10 of the molar value.
Target: MELK (maternal embryonic leucine zipper kinase) (Homo sapiens, UniProt Q14680)
Assay: IMAP kinase assay, high-throughput screen followed by dose-response
Type: biochemical

MELK (maternal embryonic leucine zipper kinase), sequence (Q14680 whole entry): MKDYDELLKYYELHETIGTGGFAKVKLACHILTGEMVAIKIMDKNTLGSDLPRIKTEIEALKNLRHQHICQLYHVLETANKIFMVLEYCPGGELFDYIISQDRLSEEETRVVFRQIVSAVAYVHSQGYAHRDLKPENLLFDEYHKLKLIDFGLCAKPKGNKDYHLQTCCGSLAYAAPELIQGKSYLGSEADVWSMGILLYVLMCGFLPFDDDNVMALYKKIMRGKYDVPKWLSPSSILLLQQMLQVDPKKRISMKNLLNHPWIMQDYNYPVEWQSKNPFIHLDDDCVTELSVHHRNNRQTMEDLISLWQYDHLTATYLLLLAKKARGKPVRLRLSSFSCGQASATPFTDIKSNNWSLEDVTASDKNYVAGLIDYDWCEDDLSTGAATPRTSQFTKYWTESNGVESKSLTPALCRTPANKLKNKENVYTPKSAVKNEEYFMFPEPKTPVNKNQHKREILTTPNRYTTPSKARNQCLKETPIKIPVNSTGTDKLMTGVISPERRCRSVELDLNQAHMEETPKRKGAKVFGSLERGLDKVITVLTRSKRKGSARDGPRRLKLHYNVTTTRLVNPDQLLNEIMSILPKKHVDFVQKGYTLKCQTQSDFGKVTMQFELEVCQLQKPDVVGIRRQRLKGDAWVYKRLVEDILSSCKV

pIC50: 5.32
SMILES: CCOC(=O)c1ccc2ncc(C(=O)OCC)c(Nc3ccc(NC(C)=O)cc3)c2c1 [compound 1, diethyl 4-(4-acetamidophenylamino) quinoline-3,6-dicarboxylate]

— publication PMC3681500, “Development of an orally-administrative MELK-targeting inhibitor that suppresses the growth of various types of human cancer” (Oncotarget, 2012)
